Measured values as given in the kinase profiling compilation of Christmann-Franck et al. (2016).

Tests used:
[1] = molecular target: MAP2K3 (human) (UniProt P46734); experiment: KINOMEscan competition binding; settings: compound 10.0 µM
[2] = molecular target: PIM1 (human) (UniProt P11309); experiment: KINOMEscan competition binding; settings: compound 10.0 µM
[3] = molecular target: PIM3 (human) (UniProt Q86V86); experiment: KINOMEscan competition binding; settings: compound 10.0 µM
[4] = molecular target: ULK2 (human) (UniProt Q8IYT8); experiment: KINOMEscan competition binding; settings: compound 10.0 µM
[5] = molecular target: PIM1 (human) (UniProt P11309); experiment: SelectScreen, TR FRET
[6] = molecular target: PIM2 (human) (UniProt Q9P1W9); experiment: SelectScreen, TR FRET
[7] = molecular target: PLK1 (human) (UniProt P53350); experiment: KINOMEscan competition binding; settings: compound 10.0 µM
Sequence of PLK1 (human) (P53350 whole entry, looked up): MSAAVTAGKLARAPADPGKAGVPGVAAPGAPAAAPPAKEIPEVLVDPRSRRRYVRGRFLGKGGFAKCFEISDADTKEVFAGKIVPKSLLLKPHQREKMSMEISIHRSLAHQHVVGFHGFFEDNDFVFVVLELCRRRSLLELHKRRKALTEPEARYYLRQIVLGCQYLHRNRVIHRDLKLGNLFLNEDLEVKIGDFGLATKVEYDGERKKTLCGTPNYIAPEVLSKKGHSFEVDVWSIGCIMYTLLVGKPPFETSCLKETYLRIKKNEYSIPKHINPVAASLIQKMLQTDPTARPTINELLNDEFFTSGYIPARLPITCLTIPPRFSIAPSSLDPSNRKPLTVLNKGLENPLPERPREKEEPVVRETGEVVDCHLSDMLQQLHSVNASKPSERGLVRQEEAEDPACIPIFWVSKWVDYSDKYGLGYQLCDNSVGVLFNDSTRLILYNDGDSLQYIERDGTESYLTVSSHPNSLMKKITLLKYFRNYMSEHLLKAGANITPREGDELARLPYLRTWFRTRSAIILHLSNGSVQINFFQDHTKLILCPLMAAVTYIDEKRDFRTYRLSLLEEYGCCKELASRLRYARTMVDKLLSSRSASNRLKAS

[8] = molecular target: PLK3 (human) (UniProt Q9H4B4); experiment: KINOMEscan competition binding; settings: compound 10.0 µM
[9] = molecular target: RPS6KA4 KD2 (human) (UniProt O75676); experiment: KINOMEscan competition binding; settings: compound 10.0 µM
[10] = molecular target: TTK (human) (UniProt P33981); experiment: KINOMEscan competition binding; settings: compound 10.0 µM
[11] = molecular target: FLT3 (human) (UniProt P36888); experiment: KINOMEscan competition binding; settings: compound 10.0 µM
[12] = molecular target: GAK (human) (UniProt O14976); experiment: KINOMEscan competition binding; settings: compound 10.0 µM
Sequence of GAK (human) (O14976 whole entry, looked up): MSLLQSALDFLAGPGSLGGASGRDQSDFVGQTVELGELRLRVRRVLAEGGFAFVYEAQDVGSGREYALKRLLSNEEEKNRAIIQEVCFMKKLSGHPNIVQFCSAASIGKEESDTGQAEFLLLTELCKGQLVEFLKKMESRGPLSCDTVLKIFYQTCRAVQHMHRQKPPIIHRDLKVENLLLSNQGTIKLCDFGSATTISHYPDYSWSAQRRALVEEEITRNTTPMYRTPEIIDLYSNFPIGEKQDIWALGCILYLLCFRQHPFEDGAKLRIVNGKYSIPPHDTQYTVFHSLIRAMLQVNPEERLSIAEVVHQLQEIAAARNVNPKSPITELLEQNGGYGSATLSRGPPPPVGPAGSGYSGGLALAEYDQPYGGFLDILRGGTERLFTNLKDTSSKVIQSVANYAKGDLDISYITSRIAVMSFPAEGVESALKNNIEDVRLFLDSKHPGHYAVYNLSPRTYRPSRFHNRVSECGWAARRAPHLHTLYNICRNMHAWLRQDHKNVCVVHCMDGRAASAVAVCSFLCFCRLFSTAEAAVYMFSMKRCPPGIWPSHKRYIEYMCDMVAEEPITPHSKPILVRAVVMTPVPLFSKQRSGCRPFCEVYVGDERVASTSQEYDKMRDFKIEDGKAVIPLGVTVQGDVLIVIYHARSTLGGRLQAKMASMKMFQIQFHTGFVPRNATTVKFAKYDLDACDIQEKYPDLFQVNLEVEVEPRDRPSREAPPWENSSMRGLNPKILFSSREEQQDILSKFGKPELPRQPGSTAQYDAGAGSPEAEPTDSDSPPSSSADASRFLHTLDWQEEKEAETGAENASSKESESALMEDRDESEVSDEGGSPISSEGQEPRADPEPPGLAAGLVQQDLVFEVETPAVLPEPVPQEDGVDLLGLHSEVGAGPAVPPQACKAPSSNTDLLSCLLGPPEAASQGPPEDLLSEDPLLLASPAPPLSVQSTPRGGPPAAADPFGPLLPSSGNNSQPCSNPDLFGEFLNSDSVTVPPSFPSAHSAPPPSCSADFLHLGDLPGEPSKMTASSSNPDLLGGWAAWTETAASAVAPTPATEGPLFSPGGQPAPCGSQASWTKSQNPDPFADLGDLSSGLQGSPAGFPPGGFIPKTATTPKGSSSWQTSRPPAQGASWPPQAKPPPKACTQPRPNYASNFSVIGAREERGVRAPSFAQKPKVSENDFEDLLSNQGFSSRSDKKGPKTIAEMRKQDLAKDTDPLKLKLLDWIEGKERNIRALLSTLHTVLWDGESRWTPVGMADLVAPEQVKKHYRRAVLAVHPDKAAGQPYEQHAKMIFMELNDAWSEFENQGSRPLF

[13] = molecular target: PLK4 (human) (UniProt O00444); experiment: KINOMEscan competition binding; settings: compound 10.0 µM
[14] = molecular target: PTK2 (human) (UniProt Q05397); experiment: KINOMEscan competition binding; settings: compound 10.0 µM
[15] = molecular target: STK33 (human) (UniProt Q9BYT3); experiment: KINOMEscan competition binding; settings: compound 10.0 µM
[16] = molecular target: DCLK1 (human) (UniProt O15075); experiment: KINOMEscan competition binding; settings: compound 10.0 µM
[17] = molecular target: MYLK (human) (UniProt Q15746); experiment: KINOMEscan competition binding; settings: compound 10.0 µM
[18] = molecular target: RPS6KA1 KD2 (human) (UniProt Q15418); experiment: KINOMEscan competition binding; settings: compound 10.0 µM
[19] = molecular target: RPS6KA2 KD2 (human) (UniProt Q15349); experiment: KINOMEscan competition binding; settings: compound 10.0 µM
[20] = molecular target: RPS6KA6 KD2 (human) (UniProt Q9UK32); experiment: KINOMEscan competition binding; settings: compound 10.0 µM
[21] = molecular target: CHUK (human) (UniProt O15111); experiment: KINOMEscan competition binding; settings: compound 10.0 µM
[22] = molecular target: CDK16 (human) (UniProt Q00536); experiment: KINOMEscan competition binding; settings: compound 10.0 µM
Sequence of CDK16 (human) (Q00536 whole entry, looked up): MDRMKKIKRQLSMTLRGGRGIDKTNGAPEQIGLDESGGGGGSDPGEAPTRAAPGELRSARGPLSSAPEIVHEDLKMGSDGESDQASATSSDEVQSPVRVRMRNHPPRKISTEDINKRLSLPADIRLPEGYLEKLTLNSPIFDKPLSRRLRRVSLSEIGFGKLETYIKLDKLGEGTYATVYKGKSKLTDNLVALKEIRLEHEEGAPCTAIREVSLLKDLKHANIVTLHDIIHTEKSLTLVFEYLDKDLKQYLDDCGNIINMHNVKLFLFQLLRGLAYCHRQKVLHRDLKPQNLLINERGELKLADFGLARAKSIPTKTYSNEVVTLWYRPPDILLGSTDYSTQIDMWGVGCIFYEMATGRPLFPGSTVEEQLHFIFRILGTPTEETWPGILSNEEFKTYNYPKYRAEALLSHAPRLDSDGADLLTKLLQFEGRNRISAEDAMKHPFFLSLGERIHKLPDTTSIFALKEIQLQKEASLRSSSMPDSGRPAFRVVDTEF

[23] = system: EGFR (human), P00533 [G719S]; experiment: KINOMEscan competition binding; settings: compound 10.0 µM
[24] = molecular target: HIPK1 (human) (UniProt Q86Z02); experiment: KINOMEscan competition binding; settings: compound 10.0 µM
Sequence of HIPK1 (human) (Q86Z02 whole entry, looked up): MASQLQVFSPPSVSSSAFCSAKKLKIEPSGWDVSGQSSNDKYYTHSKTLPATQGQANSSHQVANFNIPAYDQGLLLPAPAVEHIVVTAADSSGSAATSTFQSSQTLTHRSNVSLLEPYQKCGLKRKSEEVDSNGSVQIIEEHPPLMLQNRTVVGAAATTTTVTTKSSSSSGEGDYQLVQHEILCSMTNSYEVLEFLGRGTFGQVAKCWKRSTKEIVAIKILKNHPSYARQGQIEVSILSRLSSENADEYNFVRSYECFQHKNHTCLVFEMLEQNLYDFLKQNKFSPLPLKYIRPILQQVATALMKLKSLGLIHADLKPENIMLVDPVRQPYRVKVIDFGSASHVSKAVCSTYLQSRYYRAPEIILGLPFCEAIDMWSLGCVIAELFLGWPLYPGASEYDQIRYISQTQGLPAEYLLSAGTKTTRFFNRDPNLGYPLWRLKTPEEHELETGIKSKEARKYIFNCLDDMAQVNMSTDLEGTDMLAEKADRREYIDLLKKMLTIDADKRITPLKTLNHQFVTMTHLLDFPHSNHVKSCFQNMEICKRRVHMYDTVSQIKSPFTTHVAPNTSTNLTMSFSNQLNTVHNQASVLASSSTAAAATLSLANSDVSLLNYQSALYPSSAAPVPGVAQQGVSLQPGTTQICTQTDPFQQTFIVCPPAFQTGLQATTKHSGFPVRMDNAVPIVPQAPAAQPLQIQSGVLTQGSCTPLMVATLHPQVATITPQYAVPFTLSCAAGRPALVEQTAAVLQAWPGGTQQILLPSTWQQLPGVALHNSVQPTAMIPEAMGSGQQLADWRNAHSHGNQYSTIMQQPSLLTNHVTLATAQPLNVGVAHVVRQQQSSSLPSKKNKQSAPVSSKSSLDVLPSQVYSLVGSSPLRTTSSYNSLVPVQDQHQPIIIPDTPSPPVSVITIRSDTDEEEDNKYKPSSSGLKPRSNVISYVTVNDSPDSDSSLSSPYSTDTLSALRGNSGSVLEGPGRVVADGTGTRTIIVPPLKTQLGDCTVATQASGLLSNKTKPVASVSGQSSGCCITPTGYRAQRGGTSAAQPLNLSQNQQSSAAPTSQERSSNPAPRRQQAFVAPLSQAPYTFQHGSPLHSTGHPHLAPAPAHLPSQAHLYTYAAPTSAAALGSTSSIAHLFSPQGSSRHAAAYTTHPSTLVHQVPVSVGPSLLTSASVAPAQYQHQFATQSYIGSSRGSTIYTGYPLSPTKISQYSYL

[25] = molecular target: MAPK15 (human) (UniProt Q8TD08); experiment: KINOMEscan competition binding; settings: compound 10.0 µM
[26] = molecular target: PIM2 (human) (UniProt Q9P1W9); experiment: KINOMEscan competition binding; settings: compound 10.0 µM
[27] = molecular target: TAOK1 (human) (UniProt Q7L7X3); experiment: KINOMEscan competition binding; settings: compound 10.0 µM
[28] = molecular target: CSNK2A2 (human) (UniProt P19784); experiment: KINOMEscan competition binding; settings: compound 10.0 µM
[29] = molecular target: DAPK1 (human) (UniProt P53355); experiment: KINOMEscan competition binding; settings: compound 10.0 µM
[30] = molecular target: PIK3CG (human) (UniProt P48736); experiment: KINOMEscan competition binding; settings: compound 10.0 µM
[31] = molecular target: STK17A (human) (UniProt Q9UEE5); experiment: KINOMEscan competition binding; settings: compound 10.0 µM
Sequence of STK17A (human) (Q9UEE5 whole entry, looked up): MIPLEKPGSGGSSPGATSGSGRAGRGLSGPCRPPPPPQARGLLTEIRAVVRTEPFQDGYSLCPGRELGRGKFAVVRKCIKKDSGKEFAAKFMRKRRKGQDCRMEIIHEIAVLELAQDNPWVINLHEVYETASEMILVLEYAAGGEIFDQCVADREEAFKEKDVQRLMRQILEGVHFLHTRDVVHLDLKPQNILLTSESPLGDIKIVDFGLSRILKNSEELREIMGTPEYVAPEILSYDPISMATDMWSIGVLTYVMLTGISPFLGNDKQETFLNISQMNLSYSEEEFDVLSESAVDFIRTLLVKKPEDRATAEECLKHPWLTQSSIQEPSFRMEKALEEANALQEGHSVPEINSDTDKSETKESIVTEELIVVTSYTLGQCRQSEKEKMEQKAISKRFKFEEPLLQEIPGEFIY

[32] = molecular target: STK17B (human) (UniProt O94768); experiment: KINOMEscan competition binding; settings: compound 10.0 µM
Sequence of STK17B (human) (O94768 whole entry, looked up): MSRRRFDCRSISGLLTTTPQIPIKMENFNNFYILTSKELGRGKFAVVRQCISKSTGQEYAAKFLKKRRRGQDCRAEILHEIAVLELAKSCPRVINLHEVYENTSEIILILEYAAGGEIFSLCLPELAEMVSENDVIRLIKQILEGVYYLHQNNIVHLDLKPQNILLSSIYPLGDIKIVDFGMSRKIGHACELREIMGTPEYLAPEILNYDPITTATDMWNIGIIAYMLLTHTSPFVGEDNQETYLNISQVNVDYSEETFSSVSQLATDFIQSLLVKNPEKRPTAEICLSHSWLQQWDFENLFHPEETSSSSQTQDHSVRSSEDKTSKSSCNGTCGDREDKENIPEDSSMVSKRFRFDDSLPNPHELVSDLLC

[33] = molecular target: TYK2 JH2 pseudokinase (human) (UniProt P29597); experiment: KINOMEscan competition binding; settings: compound 10.0 µM
[34] = molecular target: ACVR2B (human) (UniProt Q13705); experiment: KINOMEscan competition binding; settings: compound 10.0 µM
[35] = molecular target: CLK1 (human) (UniProt P49759); experiment: KINOMEscan competition binding; settings: compound 10.0 µM
[36] = molecular target: CLK4 (human) (UniProt Q9HAZ1); experiment: KINOMEscan competition binding; settings: compound 10.0 µM
[37] = molecular target: DAPK2 (human) (UniProt Q9UIK4); experiment: KINOMEscan competition binding; settings: compound 10.0 µM
[38] = molecular target: GSK3A (human) (UniProt P49840); experiment: KINOMEscan competition binding; settings: compound 10.0 µM
[39] = molecular target: TGFBR2 (human) (UniProt P37173); experiment: KINOMEscan competition binding; settings: compound 10.0 µM
[40] = molecular target: CAMKK2 (human) (UniProt Q96RR4); experiment: KINOMEscan competition binding; settings: compound 10.0 µM
[41] = molecular target: DCLK2 (human) (UniProt Q8N568); experiment: KINOMEscan competition binding; settings: compound 10.0 µM
[42] = molecular target: MAPK7 (human) (UniProt Q13164); experiment: KINOMEscan competition binding; settings: compound 10.0 µM
[43] = molecular target: RIOK2 (human) (UniProt Q9BVS4); experiment: KINOMEscan competition binding; settings: compound 10.0 µM
[44] = molecular target: TNK1 (human) (UniProt Q13470); experiment: KINOMEscan competition binding; settings: compound 10.0 µM

Sequence of PIM1 (human) (P11309 whole entry, looked up): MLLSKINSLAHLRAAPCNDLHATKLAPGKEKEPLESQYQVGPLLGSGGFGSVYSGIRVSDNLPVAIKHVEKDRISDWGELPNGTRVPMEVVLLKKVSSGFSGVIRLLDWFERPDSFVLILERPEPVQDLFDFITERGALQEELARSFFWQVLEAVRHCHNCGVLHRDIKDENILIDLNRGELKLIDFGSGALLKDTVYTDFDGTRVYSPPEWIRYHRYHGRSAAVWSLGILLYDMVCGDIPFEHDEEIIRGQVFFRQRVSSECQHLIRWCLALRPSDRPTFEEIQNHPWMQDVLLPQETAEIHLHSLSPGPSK

## CN1C(=N)NC(=O)/C1=C/c1ccc(-c2ccc(S(N)(=O)=O)cc2)o1
[1]
  kinase still bound, per cent of control: 11%
[2]
  kinase still bound, per cent of control: 21%
[3]
  kinase still bound, per cent of control: 7.4%

## NS(=O)(=O)c1ccc(-c2ccc(C=C3C(=O)c4ccccc4C3=O)o2)cc1
[4]
  kinase still bound, per cent of control: 22%

## N=C1NC(=O)/C(=C/c2ccc(-c3ccc(C(=O)Nc4ccc(N5CCNCC5)cc4)cc3)o2)S1
[5]
  IC50: 151 nM
[6]
  IC50: 214 nM

## CC(C)Oc1cc(N2CCC(O)CC2)ccc1Nc1ncc2c(n1)N1CCC[C@H]1CC(=O)N2C
[7]
  kinase still bound, per cent of control: 21%
[8]
  kinase still bound, per cent of control: 16%
[9]
  kinase still bound, per cent of control: 32%
[10]
  kinase still bound, per cent of control: 5%

## N=C1NC(=O)/C(=C/c2ccc(-c3ccc4c(C(=O)Nc5cccc(C(F)(F)F)c5)cccc4c3)o2)S1
[5]
  IC50: > 10000 nM
[6]
  IC50: 3420 nM

## O=C1NC(=S)S/C1=C\c1ccc(-c2csc3ccccc23)o1
[5]
  IC50: 722 nM
[6]
  IC50: 375 nM

## CN1C(=N)NC(=O)/C1=C/c1ccc(-c2cncc3ccccc23)o1
[5]
  IC50: 3560 nM
[6]
  IC50: 3060 nM

## CCOc1cc(N2CCC(O)CC2)ccc1Nc1ncc2c(n1)N(C1CCCC1)CCC(=O)N2C
[11]
  kinase still bound, per cent of control: 0%
[12]
  kinase still bound, per cent of control: 2%
[7]
  kinase still bound, per cent of control: 4.3%
[8]
  kinase still bound, per cent of control: 15%
[13]
  kinase still bound, per cent of control: 27%
[14]
  kinase still bound, per cent of control: 24%
[15]
  kinase still bound, per cent of control: 32%
[10]
  kinase still bound, per cent of control: 3.2%

## CC(C)Oc1cc(N2CCC(N(C)C)CC2)ccc1Nc1ncc2c(n1)N1CCC[C@H]1CC(=O)N2C
[16]
  kinase still bound, per cent of control: 7.4%
[17]
  kinase still bound, per cent of control: 26%
[18]
  kinase still bound, per cent of control: 34%
[19]
  kinase still bound, per cent of control: 9.4%
[20]
  kinase still bound, per cent of control: 24%
[10]
  kinase still bound, per cent of control: 12%

## NS(=O)(=O)c1ccc(-c2ccc(/C=C3\NC(=S)NC3=O)o2)cc1
[21]
  kinase still bound, per cent of control: 32%

## N=C1NC(=O)/C(=C/c2ccc(-c3cccc4ccccc34)o2)S1
[5]
  IC50: 2170 nM
[6]
  IC50: 1200 nM

## NC1=N/C(=C\c2ccc(-c3ccc(S(N)(=O)=O)cc3)o2)C(=O)N1
[1]
  kinase still bound, per cent of control: 13%
[2]
  kinase still bound, per cent of control: 9.5%
[3]
  kinase still bound, per cent of control: 6%
[9]
  kinase still bound, per cent of control: 14%

## CS(=O)(=O)Nc1ccc(-c2cccc(/C=C3\SC(=N)NC3=O)n2)cc1
[22]
  kinase still bound, per cent of control: 10%
[23]
  kinase still bound, per cent of control: 16%
[24]
  kinase still bound, per cent of control: 0.4%
[1]
  kinase still bound, per cent of control: 21%
[25]
  kinase still bound, per cent of control: 22%
[2]
  kinase still bound, per cent of control: 23%
[26]
  kinase still bound, per cent of control: 9.2%
[3]
  kinase still bound, per cent of control: 13%
[27]
  kinase still bound, per cent of control: 26%

## Cc1cn(-c2cc(NC(=O)c3cccc4cc(-c5ccc(/C=C6\SC(=O)NC6=O)o5)ccc34)cc(C(F)(F)F)c2)cn1
[5]
  IC50: 5630 nM
[6]
  IC50: 1430 nM

## O=C1NC(=O)/C(=C/c2ccc(-c3ccc(C(=O)Nc4ccc(N5CCNCC5)cc4)cc3)o2)S1
[28]
  kinase still bound, per cent of control: 21%
[29]
  kinase still bound, per cent of control: 34%
[12]
  kinase still bound, per cent of control: 26%
[24]
  kinase still bound, per cent of control: 1.1%
[17]
  kinase still bound, per cent of control: 27%
[30]
  kinase still bound, per cent of control: 17%
[2]
  kinase still bound, per cent of control: 1.4%
[26]
  kinase still bound, per cent of control: 0.75%
[3]
  kinase still bound, per cent of control: 1.2%
[31]
  kinase still bound, per cent of control: 20%
[32]
  kinase still bound, per cent of control: 0.65%
[33]
  kinase still bound, per cent of control: 14%
[5]
  IC50: 246 nM
[6]
  IC50: 133 nM

## NS(=O)(=O)c1ccc(-c2ccc(/C=C3\SC(=S)NC3=O)o2)cc1
[22]
  kinase still bound, per cent of control: 10%
[30]
  kinase still bound, per cent of control: 22%
[2]
  kinase still bound, per cent of control: 1.8%
[3]
  kinase still bound, per cent of control: 2.2%
[13]
  kinase still bound, per cent of control: 14%
[5]
  IC50: 305 nM
[6]
  IC50: 177 nM

## CCN1CCN(Cc2cc(NC(=O)c3cccc4cc(-c5ccc(/C=C6\SC(=N)NC6=O)o5)ccc34)cc(C(F)(F)F)c2)CC1
[5]
  IC50: 774 nM
[6]
  IC50: 814 nM

## N=C1NC(=O)/C(=C/c2ccc(-c3ccc(Cl)cc3)o2)S1
[34]
  kinase still bound, per cent of control: 25%
[22]
  kinase still bound, per cent of control: 14%
[35]
  kinase still bound, per cent of control: 34%
[36]
  kinase still bound, per cent of control: 30%
[37]
  kinase still bound, per cent of control: 33%
[38]
  kinase still bound, per cent of control: 7.8%
[24]
  kinase still bound, per cent of control: 0.2%
[1]
  kinase still bound, per cent of control: 5.6%
[25]
  kinase still bound, per cent of control: 1.4%
[2]
  kinase still bound, per cent of control: 9.2%
[26]
  kinase still bound, per cent of control: 1.4%
[3]
  kinase still bound, per cent of control: 3.9%
[31]
  kinase still bound, per cent of control: 1.8%
[32]
  kinase still bound, per cent of control: 2.1%
[27]
  kinase still bound, per cent of control: 11%
[39]
  kinase still bound, per cent of control: 10%
[5]
  IC50: 895 nM
[6]
  IC50: 7830 nM

## COc1cc(C(=O)NC2CCC(O)CC2)ccc1Nc1ncc2c(n1)N(C1CCCC1)[C@@H]1CCC[C@@H]1C(=O)N2C (stereo partly specified)
[40]
  kinase still bound, per cent of control: 27%
[16]
  kinase still bound, per cent of control: 8.2%
[41]
  kinase still bound, per cent of control: 17%
[12]
  kinase still bound, per cent of control: 28%
[1]
  kinase still bound, per cent of control: 0.3%
[42]
  kinase still bound, per cent of control: 14%
[17]
  kinase still bound, per cent of control: 1.7%
[7]
  kinase still bound, per cent of control: 0%
[8]
  kinase still bound, per cent of control: 0.9%
[13]
  kinase still bound, per cent of control: 4.3%
[43]
  kinase still bound, per cent of control: 0.5%
[31]
  kinase still bound, per cent of control: 0%
[32]
  kinase still bound, per cent of control: 0%
[15]
  kinase still bound, per cent of control: 34%
[44]
  kinase still bound, per cent of control: 14%
[10]
  kinase still bound, per cent of control: 32%

## CN1C(=N)NC(=O)/C1=C/c1ccc(-c2cccc3ccccc23)o1
[38]
  kinase still bound, per cent of control: 14%
[2]
  kinase still bound, per cent of control: 27%
[26]
  kinase still bound, per cent of control: 2.6%
[3]
  kinase still bound, per cent of control: 9.6%
[31]
  kinase still bound, per cent of control: 33%
[32]
  kinase still bound, per cent of control: 32%
[5]
  IC50: > 10000 nM
[6]
  IC50: 9210 nM

## CC(C)Oc1cc(C(=O)N2CCC(N3CCN(C)CC3)CC2)ccc1Nc1ncc2c(n1)N(C1CCCC1)[C@@H]1CCC[C@@H]1C(=O)N2C
[42]
  kinase still bound, per cent of control: 4.8%
[17]
  kinase still bound, per cent of control: 18%
[7]
  kinase still bound, per cent of control: 24%
